The values that follow come from US12252490B2, “Inhibiting deubiquitinase USP25 and USP28” (Valo Health, Inc., priority 2018, dated 2025).

pIC50: −log10 of the molar value.

This test concerns the target T1, USP28 (His-tagged USP28-FL-mammalian) (Homo sapiens, UniProt Q96RU2).
T1 construct: Expression of USP28 (1-1077)-TEV-6*His (pTT5 vector) was carried out in Expi293f cells; made in house; host or cells: Expi293f cells (pTT5 vector)
T1 sequence (Q96RU2 1-1077): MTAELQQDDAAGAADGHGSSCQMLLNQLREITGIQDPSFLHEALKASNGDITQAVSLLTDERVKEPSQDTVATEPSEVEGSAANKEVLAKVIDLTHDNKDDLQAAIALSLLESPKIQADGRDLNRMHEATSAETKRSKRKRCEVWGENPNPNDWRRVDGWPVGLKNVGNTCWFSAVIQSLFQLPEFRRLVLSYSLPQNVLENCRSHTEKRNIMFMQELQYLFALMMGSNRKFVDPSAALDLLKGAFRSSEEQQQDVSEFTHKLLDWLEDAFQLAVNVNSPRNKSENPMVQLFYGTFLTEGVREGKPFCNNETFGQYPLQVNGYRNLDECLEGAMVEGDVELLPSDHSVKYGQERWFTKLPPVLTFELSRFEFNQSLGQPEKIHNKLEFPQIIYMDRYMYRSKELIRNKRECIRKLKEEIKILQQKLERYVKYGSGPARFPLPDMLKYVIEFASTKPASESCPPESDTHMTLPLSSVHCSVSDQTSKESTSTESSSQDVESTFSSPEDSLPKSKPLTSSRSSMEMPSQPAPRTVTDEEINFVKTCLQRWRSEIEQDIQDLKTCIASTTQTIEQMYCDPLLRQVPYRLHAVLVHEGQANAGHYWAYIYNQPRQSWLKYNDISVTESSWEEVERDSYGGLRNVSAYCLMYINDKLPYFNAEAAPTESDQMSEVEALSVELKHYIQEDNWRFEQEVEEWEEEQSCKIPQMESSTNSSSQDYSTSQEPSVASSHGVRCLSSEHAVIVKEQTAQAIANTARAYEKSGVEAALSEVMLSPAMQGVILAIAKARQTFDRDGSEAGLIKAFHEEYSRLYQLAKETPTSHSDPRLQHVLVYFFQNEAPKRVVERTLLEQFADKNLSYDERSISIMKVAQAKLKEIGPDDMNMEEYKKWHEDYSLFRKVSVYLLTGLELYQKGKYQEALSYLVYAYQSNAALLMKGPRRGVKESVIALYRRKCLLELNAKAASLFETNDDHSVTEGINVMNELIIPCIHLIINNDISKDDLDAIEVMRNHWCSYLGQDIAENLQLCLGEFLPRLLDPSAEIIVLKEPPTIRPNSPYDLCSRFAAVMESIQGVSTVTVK
Briefly: Ubiquitin-Rhodamine 110 Assay for USP28 Activity, Example A-1(a). In kind it is biochemical. The note with it: USP28, 75 pM enzyme, 25 nM Ub-Rh110, 1536-well, 30 min preincubation; read-out: Assay A-1(a) (IC50 range). As to the method:
The assay was performed in a final volume of 9 μL in assay buffer containing 20 mM Tris-HCl (pH 8.0, (1M Tris-HCl, pH 8.0 solution; Corning 46-031-CM)), 3 mM BME (2-Mercaptoethanol; Sigma 63689-25ML-F), 0.03% BGG (0.22 μM filtered, Sigma, G7516-25G), and 0.01% Triton X-100 (Sigma, T9284-10L). Nanoliter quantities of 10-point, 3-fold serial dilution in DMSO was pre-dispensed into 1536 assay plates (Corning, #3724BC) for a final test concentration of 25 μM to 1.3 nM, top to lowest dose, respectively. Enzyme USP28, construct His-tagged USP28-FL-mammalian, (protein expression and purification procedure described below). Concentration and incubation times were optimized for the maximal signal-to-background while maintaining initial velocity conditions at a fixed substrate concentration. The final concentration of the enzyme in the assay was 75 pM. Final substrate (Ub-Rh110; Ubiquitin-Rhodamine 110, UbiQ-126) concentration was 25 nM with [Ub-Rh110]<<Km. 3 μL of 2× enzyme was added to assay plates (pre-stamped with compound) preincubated with […] for 30 minutes and then 3 μL of 2×Ub-Rh110 was added to assay plates. Plates were incubated for 45 minutes at room temperature before addition of 3 μL of stop solution (final concentration of 10 mM citric acid (Sigma, 251275-500G)). Fluorescence was read on the Envision (Excitation at 485 nm and Emission at 535 nm; Perkin Elmer) or on the PheraSTAR (Excitation at 485 nm and Emission at 535 nm; BMG Labtech).
Expression of USP28 (1-1077)-TEV-6*His (pTT5 vector) was carried out in Expi293f cells (sequence derived from uniprot ID: Q96RU2-1). Cells were re-suspended in lysis buffer B 50 mM Bicine, pH 8.0, 20 mM NaCl, 5% glycerol, 0.1% CHAPS, 5 mM β-ME, 1 mM PMSF, 1 μg/ml Leupeptin, 1 μg/ml Pepstatin) and lysed by sonication. Insoluble material was removed by centrifugation and the supernatant was loaded onto a Ni-NTA column (GE Healthcare) equilibrated with Ni Buffer A (50 mM Bicine, pH 8.0, 20 mM NaCl, 5% glycerol, 0.1% CHAPS, 5 mM β-ME.) and washed with Ni Buffer A+20 mM imidazole until A280 reached baseline. The protein was eluted with Ni Buffer B (50 mM Bicine, pH 8.0, 20 mM NaCl, 5% glycerol, 0.1% CHAPS, 5 mM β-ME, 300 mM imidazole.). The protein was further purified using a Superdex™ 200 10/300 GL column (GE Healthcare) equilibrated with 50 mM Bicine, pH 8.0, 20 mM NaCl, 5% glycerol, 0.1% CHAPS, 5 mM β-ME. The protein was concentrated to 2.5 mg ml^−1, flash-frozen in liquid N2 and stored at −80° C.
For assay formats Examples A-1a, A-1b, and A-2, data were reported as percent inhibition compared with control wells based on the following equation: % inh=1−((FLU−AveLow)/(AveHigh−AveLow)) where FLU=measured Fluorescence, AveLow=average Fluorescence of no enzyme control (n=16), and AveHigh=average Fluorescence of DMSO control (n=16). IC50 values were determined by curve fitting of the standard 4 parameter logistic fitting algorithm included in the Activity Base software package: IDBS XE Designer Model205. Data is fitted using the Levenburg Marquardt algorithm.
`CCn1ccc2cc(C(=O)NC[C@@H](C)c3cc(F)c(N4CCNCC4)cc3F)cnc21` (single isomer, unassigned) [Example 2-1]: the pIC50 was 6.70 to 7.30.
Regarding `CCn1ccc2cc(C(=O)NC[C@H](C)c3cc(F)c(N4CCNCC4)cc3F)cnc21` (single isomer, unassigned) [Example 2-2], the pIC50 was 5.70 to 6.70.
On to `CCn1ccc2cc(C(=O)NC[C@H](C)c3cc(F)c(N4CC5CCC(C4)N5)cc3F)cnc21` (single isomer, unassigned) [Example 2-3], for which the negative logarithm of the IC50 (pIC50) was 7.30 to 9.00.
Consider `CCn1ccc2cc(C(=O)NC[C@@H](C)c3cc(F)c(N4CC5CCC(C4)N5)cc3F)cnc21` (single isomer, unassigned) [Example 2-4], for which the negative-log IC50 (pIC50) is 6.70 to 7.30.
On to `CCn1ccc2cc(C(=O)NC[C@H](C)c3cc(F)c(N4CC5CCC(C4)N5)cc3F)nnc21` (single isomer, unassigned) [Example 4-2], for which the pIC50 is 6.70 to 7.30.
For `CCn1ccc2cc(C(=O)NC[C@@H](C)c3cc(F)c(N4CC5CCC(C4)N5)cc3F)nnc21` (single isomer, unassigned) [Example 4-3] the value was 6.70 to 7.30; for `CCn1ccc2cc(C(=O)NCCc3cc(F)c(N4CC5CCC(C4)N5)cc3F)cnc21` [Example 1-1, N-[2-(4-[3,8-diazabicyclo[3.2.1]octan-3-yl]-2,5-difluorophenyl)ethyl]-1-ethyl-1H-pyrrolo[2,3-b]pyridine-5-carboxamide], 7.30 to 9.00; for `O=C(NCCc1ccc(N2CCNCC2)cc1)c1cnc2[nH]ccc2c1` [Example 1-2, N-(4-(piperazin-1-yl)phenethyl)-1H-pyrrolo[2,3-b]pyridine-5-carboxamide], 5.70 to 6.70.
As for `Cn1ccc2cc(C(=O)NCCc3ccc(N4CCNCC4)cc3)cnc21` [Example 1-3, 1-methyl-N-(4-(piperazin-1-yl)phenethyl)-1H-pyrrolo[2,3-b]pyridine-5-carboxamide], the negative-log IC50 (pIC50) is 5.70 to 6.70.
For the compound `CCn1ccc2cc(C(=O)NCCc3ccc(N4CCNCC4)cc3)cnc21` [Example 1-4, 1-ethyl-N-(4-(piperazin-1-yl)phenethyl)-1H-pyrrolo[2,3-b]pyridine-5-carboxamide], the negative-log IC50 (pIC50) is 7.30 to 9.00.
Regarding `Nc1c(C(=O)NCCc2ccc(N3CCNCC3)cc2)cnc2[nH]ccc12` [Example 1-5, 4-amino-N-(4-(piperazin-1-yl)phenethyl)-1H-pyrrolo[2,3-b]pyridine-5-carboxamide], the pIC50 was 5.70 to 6.70.
`CCn1ccc2cc(C(=O)NCCc3ccc(N4CC5CCC(C4)N5)cc3)cnc21` [Example 1-6, N-(4-(3,8-diazabicyclo[3.2.1]octan-3-yl)phenethyl)-1-ethyl-1H-pyrrolo[2,3-b]pyridine-5-carboxamide]: the pIC50 was 7.30 to 9.00.
The figure for `CCn1ccc2cc(C(=O)NCCc3cc(F)c(N4CCNCC4)cc3F)cnc21` [Example 1-7, N-(2,5-difluoro-4-(piperazin-1-yl)phenethyl)-1-ethyl-1H-pyrrolo[2,3-b]pyridine-5-carboxamide] is 7.30 to 9.00.
Take `O=C(NCCc1ccc(N2CCNCC2)cc1)c1cnc2c(ccn2CC(F)(F)F)c1` [Example 1-8]: the pIC50 was 7.30 to 9.00.
The figure for `CC(C)(O)Cn1ccc2cc(C(=O)NCCc3cc(F)c(N4CC5CCC(C4)N5)cc3F)cnc21` [Example 1-9, N-(4-(3,8-diazabicyclo[3.2.1]octan-3-yl)-2,5-difluorophenethyl)-1-(2-hydroxy-2-methylpropyl)-1H-pyrrolo[2,3-b]pyridine-5-carboxamide] is 5.00 to 5.70; for `CCn1ccc2cc(C(=O)NCCc3ccc(N4CC5CCC(C4)N5)c(F)c3)cnc21` [Example 1-10, N-(4-(3,8-diazabicyclo[3.2.1]octan-3-yl)-3-fluorophenethyl)-1-ethyl-1H-pyrrolo[2,3-b]pyridine-5-carboxamide] it is 7.30 to 9.00.
For `CCn1cc(Cl)c2cc(C(=O)NCCc3ccc(N4CCNCC4)cc3)cnc21` [Example 3-1, 3-Chloro-1-ethyl-N-[2-[4-(piperazin-1-yl)phenyl]ethyl]-1H-pyrrolo[2,3-b]pyridine-5-carboxamide], the pIC50 was 7.30 to 9.00.
Take `O=C(NCCc1ccc(N2CCNCC2)cc1)c1cnc2[nH]cc(Cl)c2c1` [Example 3-2, 3-chloro-N-(4-(piperazin-1-yl)phenethyl)-1H-pyrrolo[2,3-b]pyridine-5-carboxamide]: the negative-log IC50 (pIC50) is 5.70 to 6.70.
For `CCn1ccc2cc(C(=O)NCCc3cc(F)c(N4CC5CCC(C4)N5)cc3F)nnc21` [Example 4-1, N-[2-(4-[3,8-diazabicyclo[3.2.1]octan-3-yl]-2,5-difluorophenyl)ethyl]-7-ethyl-7H-pyrrolo[2,3-c]pyridazine-3-carboxamide] the value was 7.30 to 9.00.
For `CCn1cc(Cl)c2cc(C(=O)NCCc3cc(F)c(N4CC5CCC(C4)N5)cc3F)nnc21` [Example 4-4, N-(4-(3,8-diazabicyclo[3.2.1]octan-3-yl)-2,5-difluorophenethyl)-5-chloro-7-ethyl-7H-pyrrolo[2,3-c]pyridazine-3-carboxamide] the value was 7.30 to 9.00.
